# Data published in patent US20250313546A1, “NUCLEIC ACID BINDERS” (UNIVERSITY OF STRATHCLYDE, priority 2022, published 2025).
# Assays:
# [1] = system: human respiratory syncytial virus (RSV A2); experiment: Viral ToxGlo assay, Hep-2 cells; type: cell-based; settings: 72 h
# [2] = system: Genomic double stranded DNA (salmon); experiment: Fluorescence intercalator displacement (FID) assay, SYBR-safe probe; settings: 20 μM compound, 30° C., lower % = stronger binding
# How it was run: (§1)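 Probe displacement was measured at 30 °C in 1 mM phosphate pH 7.4 containing SybrSafe (12500-fold dilution), 3.76 ng/mL nucleic acid (salmon dsDNA or polyAU dsRNA) and 20 μM compound. Fluorescence loss is normalised between probe-only and probe-plus-nucleic-acid controls.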
# [3] = system: PolyAU double stranded RNA; experiment: as above; settings: 20 μM compound, 30° C., lower % = stronger binding
# How it was run: as §1
# [4] = system: A. fumigatus A1160 (MFIG001); settings: Aspergillus fumigatus, read-out: MIC99 A. fumigatus A1160
# Method: (§2) The Minimum Inhibitory Concentration (MIC, at 99% inhibition) of the compounds was determined using the broth microdilution method as recommended by EUCAST (EUCAST Definitive Document E.DEF 9.3.2, Method for the determination of broth dilution minimum inhibitory concentrations of antifungal agents for conidia forming moulds and EUCAST Definitive Document E.DEF 7.3.2 Method for the determination of broth dilution minimum inhibitory concentrations of antifungal agents for yeasts).
# C. neoformans (F10025) = settings: Cryptococcus neoformans, read-out: MIC99 C. neoformans
# T. equiperdum = experiment: Resazurin-based (Alamar blue) drug sensitivity assay; settings: Trypanosoma equiperdum, read-out: IC50 T. equiperdum
# [5] = system: Candida glabrata (ACPF3309); settings: for MIC99: Nakaseomyces glabratus, read-out: MIC99 Candida glabrata; for C. glabrata Selectivity Indices, Group: Alkyl Amidines and NH Pyrroles
# [6] = system: Escherichia coli (ATCC 25922); experiment: Antibacterial MIC, broth microdilution (CLSI); type: cell-based; settings: Escherichia coli, ATCC25922; read-out: MIC80 E. coli
# [7] = system: Enterococcus faecalis (ATCC 51299); experiment: Antibacterial MIC, broth microdilution (CLSI); type: cell-based; settings: for MIC80: Enterococcus faecalis, ATCC51299, read-out: MIC80 E. faecalis; for E. faecalis Selectivity Indices, Group: Alkyl Amidines and NH Pyrroles
# T. evansi AntTat 3/3 = experiment: Resazurin-based (Alamar blue) drug sensitivity assay; settings: read-out: IC50 T. evansi
# T. vaginalis = experiment: Trichomonas resorufin assay; type: cell-based; settings: Trichomonas vaginalis, read-out: IC50 T. vaginalis
# [8] = system: Staphylococcus aureus (ATCC 43300); experiment: Antibacterial MIC, broth microdilution (CLSI); type: cell-based; settings: for S. aureus Selectivity Indices, Group / S. aureus Selectivity Index (SI): SI, IC50 (μM)/MIC80 (μM), HEK293 cytotoxicity; for S. aureus Selectivity Indices, Group: Alkyl Amidines and NH Pyrroles; for MIC80: Staphylococcus aureus, ATCC43300, read-out: MIC80 S. aureus; for S. aureus Selectivity Index (SI): numeric value
# [9] = system: SARS-CoV-2 (hCoV-19/Australia/VIC01/2020); experiment: SARS-CoV-2 microplaque inhibition assay in Vero-E6 cells; type: cell-based; settings: for IC50: Severe acute respiratory syndrome coronavirus 2, Vero C1008, plaque inhibition, Vero-E6 cells, read-out: IC50 SARS-CoV-2; for SARS-CoV-2 Selectivity Indices, Group: Alkyl Amidines and NH Pyrroles
# Influenza (H1N1) = experiment: Accelerated Viral Neuraminidase Inhibition Assay (AVINA), A549 cells; type: cell-based; settings: Influenza A virus, 72 h
# Candida auris (H.17.157) = settings: for MIC99: Candidozyma auris, read-out: MIC99 Candida auris; for C. auris Selectivity Indices, Group: SI, IC50 (μM)/MIC99 (μg/mL), HEK293 cytotoxicity, Alkyl Amidines and NH Pyrroles
# [10] = system: Rhizopus arrhizus (NEQAS12.35321); settings: read-out: MIC99 Rhizopus arrhizus
# Method: as §2
# [11] = SI, IC50 (μM)/MIC99 (μg/mL), HEK293 cytotoxicity
# [12] = SI, IC50 (μM)/MIC80 (μM), HEK293 cytotoxicity
# [13] = SI, IC50 (μM)/IC50 (μM), HEK293 cytotoxicity
Structure (SMILES),inhibition at 20 µM [1] [%],% Normalised Fluorescence with gDNA [2] [%],% Normalised Fluorescence with polyAU RNA [3] [%],MIC99 [4] [µg/mL],MIC99 (C. neoformans (F10025)) [µg/mL],IC50 (T. equiperdum) [µM],MIC99 [5] [µg/mL],MIC80 [6] [µM],MIC80 [7] [µM],IC50 (T. evansi AntTat 3/3) [µM],IC50 (T. vaginalis) [µM],"S. aureus Selectivity Indices, Group [8]",MIC80 [8] [µM],IC50 [9] [µM],inhibition at 20 µM (Influenza (H1N1)) [%],MIC99 (Candida auris (H.17.157)) [µg/mL],"C. auris Selectivity Indices, Group (Candida auris (H.17.157))",MIC99 [10] [µg/mL],other results
"COc1ccc(/C=C/c2ccc(C(=O)Nc3cc(C(=O)Nc4cc(C(=O)NCCC(=N)NC(C)C)n(C)c4)n(C)c3)cn2)cc1 [Ia15, (E)-N-(5-((5-((3-imino-3-(isopropylamino)propyl)carbamoyl)-1-methyl-1H-pyrrol-3-yl)carbamoyl)-1-methyl-1H-pyrrol-3-yl)-6-(4-methoxystyryl)nicotinamide]",10 to 25,16,64,25 to 50,< 5,0.1 to 1,5 to 25,25 to 100,5 to 25,0.1 to 1,> 50,C (Group C: 5 < SI <= 10),5 to 25,8 to 32,,,,,
"[H]/N=C(\CCNC(=O)c1cc(NC(=O)c2cc(NC(=O)c3ccc(C=Cc4ccc(C#N)cc4)cc3)cn2C)cn1C)NC(C)C [Ia17, (E)-4-(4-(4-cyanostyryl)benzamido)-N-(5-((3-imino-3-(isopropylamino)propyl)carbamoyl)-1-methyl-1H-pyrrol-3-yl)-1-methyl-1H-pyrrole-2-carboxamide]",10 to 25,13,28,> 50,> 50,,25 to 50,> 100,25 to 100,,5 to 50,,25 to 100,,10 to 25,,,,
"Cn1cc(NC(=O)c2cc(NC(=O)c3ccc(/C=C/c4cnc5ccccc5c4)cc3)c[nH]2)cc1C(=O)NCCN1CCOCC1 [IIIb8, (E)-1-methyl-N-(2-morpholinoethyl)-4-(4-(4-(2-(quinolin-3-yl)vinyl)benzamido)-1H-pyrrole-2-carboxamido)-1H-pyrrole-2-carboxamide]",,37,26,,,< 0.01,,> 100,> 100,0.01 to 0.1,,,< 5,,> 50,,,,
"Cn1cc(NC(=O)c2cc(NC(=O)c3ccc(/C=C/c4cnc5ccccc5c4)cc3)c[nH]2)cc1C(=O)NCCC(=N)N [IIIa4, (E)-N-(3-amino-3-iminopropyl)-1-methyl-4-(4-(4-(2-(quinolin-3-yl)vinyl)benzamido)-1H-pyrrole-2-carboxamido)-1H-pyrrole-2-carboxamide]",,14,3,5 to 25,< 5,< 0.01,< 5,25 to 100,< 5,0.01 to 0.1,,D (D: SI > 10),< 5,,,25 to 50,C (Group C 1 < SI <= 3),5 to 25,"C. glabrata Selectivity Indices, Group [5, 11]: D (Group D: SI > 50); C. glabrata Selectivity Index (SI) ([5]; SI, IC50 (μM)/MIC99 (μg/mL), HEK293 cytotoxicity, numeric value): 652; E. faecalis Selectivity Indices, Group [7, 12]: D (D: SI > 10); E. faecalis Selectivity Index (SI) ([7]; SI, IC50 (μM)/MIC80 (μM), HEK293 cytotoxicity, numeric value): 41; S. aureus Selectivity Index (SI) [8]: 81"
"[H]/N=C(\CCNC(=O)c1cc(NC(=O)c2cc(NC(=O)c3ccc(C=Cc4ccc(C#N)cc4)cc3)cn2C)cn1C)NCC [Ia16, (E)-4-(4-(4-cyanostyryl)benzamido)-N-(5-((3-(ethylamino)-3-iminopropyl)carbamoyl)-1-methyl-1H-pyrrol-3-yl)-1-methyl-1H-pyrrole-2-carboxamide]",25 to 50,31,27,> 50,5 to 25,,25 to 50,> 100,5 to 25,,5 to 50,,25 to 100,,25 to 50,,,,"E. faecalis Selectivity Indices, Group [7, 12]: B (Group B: 3 < SI <= 5)"
"CN(C)c1ccc(/C=C/c2ccc(C(=O)Nc3cc(C(=O)Nc4c[nH]c(C(=O)NCCC(=N)N)c4)n(C)c3)cn2)cc1 [IIIa7, (E)-N-(5-((5-((3-amino-3-iminopropyl)carbamoyl)-1H-pyrrol-3-yl)carbamoyl)-1-methyl-1H-pyrrol-3-yl)-6-(4-(dimethylamino)styryl)nicotinamide]",,13,20,5 to 25,< 5,> 1,< 5,25 to 100,5 to 25,> 1,,D (D: SI > 10),< 5,< 2,,5 to 25,C (Group C 1 < SI <= 3),5 to 25,"C. glabrata Selectivity Indices, Group [5, 11]: B (Group B: 12 < SI <= 20); S. aureus Selectivity Index (SI) [8]: 14; SARS-CoV-2 Selectivity Indices, Group [9, 13]: C (Group C: 10 < SI <= 25); SARS-CoV-2 Selectivity Index (SI) ([9]; SI, IC50 (μM)/IC50 (μM), HEK293 cytotoxicity, numeric value): 24"
"[H]/N=C(\CCNC(=O)c1cc(NC(=O)c2cc(NC(=O)c3ccc(C=Cc4ccc(N(C)C)cc4)nc3)cn2C)cn1C)NCC [Ia1, (E)-6-(4-(dimethylamino)styryl)-N-(5-((5-((3-(ethylamino)-3-iminopropyl)carbamoyl)-1-methyl-1H-pyrrol-3-yl)carbamoyl)-1-methyl-1H-pyrrol-3-yl)nicotinamide]",,13,5,5 to 25,< 5,0.1 to 1,< 5,> 100,25 to 100,0.01 to 0.1,,B (Group B: 3 < SI <= 5),5 to 25,2 to 8,,5 to 25,B (Group B: 0.4 < SI <= 1),> 50,"SARS-CoV-2 Selectivity Indices, Group [9, 13]: B (Group B: 4.1 < SI <= 10)"
